Read-outs that look alike come from different tables or passages of the source.
Biological target: T1, human Y5 receptor (Homo sapiens, UniProt Q15761)
T1 sequence (Q15761 1-445): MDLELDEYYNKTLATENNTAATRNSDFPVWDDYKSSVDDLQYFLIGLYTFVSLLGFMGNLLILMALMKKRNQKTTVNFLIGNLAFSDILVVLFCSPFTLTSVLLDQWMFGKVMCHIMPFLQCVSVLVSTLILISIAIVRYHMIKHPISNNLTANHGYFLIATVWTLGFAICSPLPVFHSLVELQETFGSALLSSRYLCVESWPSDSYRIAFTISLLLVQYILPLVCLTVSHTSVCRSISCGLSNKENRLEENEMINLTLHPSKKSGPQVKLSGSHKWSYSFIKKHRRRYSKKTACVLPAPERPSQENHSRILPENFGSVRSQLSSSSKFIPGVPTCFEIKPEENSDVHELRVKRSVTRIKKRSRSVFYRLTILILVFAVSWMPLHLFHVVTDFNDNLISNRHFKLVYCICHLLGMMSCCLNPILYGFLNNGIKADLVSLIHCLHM
Assay: Y5 receptor binding inhibition test
Settings: for inhibition at 10 µM: 2 h, read-out: % Inhibition ratio (10 μM)

[1] = test compound 10 μM, 3H-NPY, membrane of insect cells expressing human Y5 receptor, 4° C., 2 hours, relative to Y5 specific binding in solvent group

| inhibition at 10 µM [%] | % Inhibition ratio (10 μM) [1] [%] | Structure (SMILES) | further results |
| --- | --- | --- | --- |
| 94 |  | CCn1c2ccccc2c2cc(C(=O)NCCCCNS(=O)(=O)c3cccc4ccccc34)ccc21 [Compound 1-31] |  |
| 97 |  | CCn1c2ccccc2c2cc(C(=O)NCCCCCNS(=O)(=O)c3cccc4ccccc34)ccc21 [Compound 1-32] |  |
| 82 |  | CCn1c2ccccc2c2cc(C(=O)NCCCCCCNS(=O)(=O)c3cccc4ccccc34)ccc21 [Compound 1-33] |  |
| 88 |  | CCn1c2ccccc2c2cc(C(=O)NC(C)CCCCNS(=O)(=O)c3cccc4ccccc34)ccc21 (stereo not drawn) [Compound 1-34] |  |
| 75 |  | CCn1c2ccccc2c2cc(C(=O)NC3CCC(CNS(=O)(=O)c4cccc5ccccc45)CC3)ccc21 (stereo not drawn) [Compound 1-35] |  |
| 92 |  | CCn1c2ccccc2c2c(OC)c(C(=O)NCCCCCNS(=O)(=O)c3cccc4ccccc34)ccc21 [Compound 1-36] |  |
| 80 |  | CCOc1c(C(=O)NCCCCCNS(=O)(=O)c2cccc3ccccc23)ccc2c1c1ccccc1n2CC [Compound 1-39] |  |
| 91 |  | CCOc1c(C(=O)NCCCCCNS(=O)(=O)c2cccc3ccccc23)ccc2c1c1c(n2CC)CCCC1 [Compound 1-40] |  |
| 52 |  | CCn1c2ccccc2c2c(O)c(C(=O)NCCCCCNS(=O)(=O)c3cccc4ccccc34)ccc21 [Compound 1-41] |  |
| 74 |  | CCn1c2ccccc2c2cc(C(=O)NCCCCCNS(=O)(=O)c3cccc4ccccc34)c(O)cc21 [Compound 1-42] |  |
| 54 |  | CCn1c2c(c3cc(C(=O)NCCCCCNS(=O)(=O)c4cccc5ccccc45)c(O)cc31)CCCC2 [Compound 1-43] |  |
| 69 |  | CCn1c2c(c3c(O)c(C(=O)NCCCCCNS(=O)(=O)c4cccc5ccccc45)ccc31)CCCC2 [Compound 1-44] |  |
| 87 |  | CCn1c2c(c3cc(C(=O)NCCCCCNS(=O)(=O)c4cccc5ccccc45)ccc31)CCCC2 [Compound 1-45] |  |
| 102 |  | Cn1c2ccccc2c2cc(C(=O)NCCCCCNS(=O)(=O)c3cccc4ccccc34)ccc21 [Compound 1-46] |  |
| 100 |  | CC(C)n1c2ccccc2c2cc(C(=O)NCCCCCNS(=O)(=O)c3cccc4ccccc34)ccc21 [Compound 1-47] |  |
| 91 |  | COCCn1c2ccccc2c2cc(C(=O)NCCCCCNS(=O)(=O)c3cccc4ccccc34)ccc21 [Compound 1-49] |  |
| 89 |  | COCCn1c2c(c3cc(C(=O)NCCOCCNS(=O)(=O)C(C)C)ccc31)CCCC2 [Compound 1-50] |  |
| 80 |  | CCn1c2c(c3cc(C(=O)NCCOCCNS(C)(=O)=O)ccc31)CCCC2 [Compound 1-51] |  |
| 88 |  | CCn1c2c(c3cc(C(=O)NCCOCCNS(=O)(=O)C(C)C)ccc31)CCCC2 [Compound 1-52] |  |
| 66 |  | COCCn1c2c(c3cc(C(=O)NCCOCCNS(C)(=O)=O)ccc31)CCCC2 [Compound 1-53] |  |
| 88 |  | CC(=O)n1c2ccccc2c2cc(C(=O)NCCCCCNS(=O)(=O)c3cccc4ccccc34)ccc21 [Compound 1-54] |  |

| inhibition at 10 µM [%] | % Inhibition ratio (10 μM) [1] [%] | Structure (SMILES) | further results |
| --- | --- | --- | --- |
| 94 |  | CCn1c2ccccc2c2cc(C(=O)NCCCCCN3C(=O)c4ccccc4C3=O)ccc21 [Compound 1-56] |  |
| 89 |  | CCn1c2ccccc2c2cc(C(=O)NCCCCCNS(=O)(=O)c3cccnc3)ccc21 [Compound 1-57] |  |
| 66 |  | COCCn1c2c(c3cc(C(=O)NCCOCCNS(=O)(=O)c4cccnc4)ccc31)CCCC2 [Compound 1-58] |  |
| 93 |  | CC(C)S(=O)(=O)NCCCCCNC(=O)c1ccc2c(c1)c1c(n2CCO)CCCC1 [Compound 1-59] |  |
| 86 |  | CC(C)S(=O)(=O)NCCCCCNC(=O)c1ccc2c(c1)c1c(n2CCOCCO)CCCC1 [Compound 1-60] |  |
| 77 |  | CC(C)S(=O)(=O)NCCCCCNC(=O)c1ccc2c(c1)c1c(n2CC(N)=O)CCCC1 [Compound 1-61] |  |
| 71 |  | CCn1c2c(c3cc(C(=O)NCCOCCSc4ncn[nH]4)ccc31)CCCC2 [Compound 2-1] |  |
| 85 |  | CCn1c2c(c3cc(C(=O)NCCOCCn4nnnc4N)ccc31)CCCC2 [Compound 2-4] |  |
| 88 |  | CCn1c2c(c3cc(NC(C)=O)ccc31)CCCC2 [Compound 3-1] |  |
| 94 |  | CCn1c2c(c3cc(NC(C)=O)ccc31)CCCCC2 [Compound 3-2] |  |
| 89 |  | CCn1c2c(c3cc(NC(C)=O)ccc31)CCC2 [Compound 3-3] |  |
| 100 |  | CCn1c2ccccc2c2cc(NC(=O)C3CC3)ccc21 [Compound 3-5] |  |
| 95 |  | CCn1c2ccccc2c2cc(NC(=O)COC)ccc21 [Compound 3-7] |  |
| 73 |  | CCn1c2ccccc2c2cc(NS(C)(=O)=O)ccc21 [Compound 3-8] |  |
|  |  | CC(C)n1c2c(c3cc(NC(=O)NCCO)ccc31)CCCC2 [Compound 4-2] | % Inhibition ratio (10 μM): 89% |
|  | 97 | CC(C)N(C)C(=O)Nc1ccc2c(c1)c1c(n2C(C)C)CCCC1 [Compound 5-2] |  |
|  |  | CC(C)n1c2c(c3cc(NC(=O)N(C)CCO)ccc31)CCCC2 [Compound 5-4] | % Inhibition ratio (10 μM): 101% |
|  | 82 | CC(C)n1c2c(c3cc(NC(=O)N(C)CCCN(C)C)ccc31)CCCC2 [Compound 5-5] |  |
|  | 100 | COCCCCN(C)C(=O)Nc1ccc2c(c1)c1c(n2C(C)C)CCCC1 [Compound 5-7] |  |
|  | 104 | CC(C)n1c2c(c3cc(NC(=O)N(C)CCOCCO)ccc31)CCCC2 [Compound 5-10] |  |
|  | 97 | CC(C)n1c2c(c3cc(NC(=O)N(C)C4CCCCC4)ccc31)CCCC2 [Compound 5-11] |  |

| inhibition at 10 µM [%] | % Inhibition ratio (10 μM) [1] [%] | Structure (SMILES) | further results |
| --- | --- | --- | --- |
|  | 100 | CC(C)n1c2c(c3cc(NC(=O)N(C)[C@H]4CC[C@H](O)CC4)ccc31)CCCC2 [Compound 5-12] |  |
|  | 87 | CC(C)n1c2c(c3cc(NC(=O)N(C)CCN4CCN(C)CC4)ccc31)CCCC2 [Compound 5-15] |  |
|  | 100 | CC(C)n1c2c(c3cc(NC(=O)N(C)Cc4ccncc4)ccc31)CCCC2 [Compound 5-17] |  |
|  | 100 | CC(C)n1c2c(c3cc(NC(=O)N(C)CCc4cccnc4)ccc31)CCCC2 [Compound 5-19] |  |
|  | 100 | CC(C)n1c2c(c3cc(NC(=O)N(C)CCCn4ccnc4)ccc31)CCCC2 [Compound 5-22] |  |
|  | 98 | CC(C)n1c2c(c3cc(NC(=O)N(C)CCSc4nnc[nH]4)ccc31)CCCC2 [Compound 5-23] |  |
|  | 95 | CC(C)n1c2c(c3cc(NC(=O)N(C)CCCSc4nnc[nH]4)ccc31)CCCC2 [Compound 5-24] |  |
|  | 101 | CC(C)n1c2c(c3cc(NC(=O)N(C)CCSc4ncc[nH]4)ccc31)CCCC2 [Compound 5-25] |  |
|  | 108 | CC(C)n1c2c(c3cc(NC(=O)N(C)CC(O)CO)ccc31)CCCC2 (stereo not drawn) [Compound 5-26] |  |
|  |  | CC(C)n1c2c(c3cc(NC(=O)N(CCO)CCO)ccc31)CCCC2 [Compound 6-2] | % Inhibition ratio (10 μM): 86% |
|  | 92 | CC(C)n1c2c(c3cc(NC(=O)N4CCCC4)ccc31)CCCC2 [Compound 7-1] |  |
|  | 99 | CC(C)n1c2c(c3cc(NC(=O)N4CCCCC4)ccc31)CCCC2 [Compound 7-2] |  |
|  | 98 | CC(C)n1c2c(c3cc(NC(=O)N4CCCCCC4)ccc31)CCCC2 [Compound 7-3] |  |
|  | 90 | CC(C)n1c2c(c3cc(NC(=O)N4CCC(O)C4)ccc31)CCCC2 (stereo not drawn) [Compound 7-4] |  |
|  | 100 | CC(C)n1c2c(c3cc(NC(=O)N4CCC[C@H]4CO)ccc31)CCCC2 [Compound 7-5] |  |
|  | 88 | CC(C)n1c2c(c3cc(NC(=O)N4CCC[C@@H]4CO)ccc31)CCCC2 [Compound 7-6] |  |
|  | 97 | CC(C)n1c2c(c3cc(NC(=O)N4CCC(O)CC4)ccc31)CCCC2 [Compound 7-7] |  |
|  | 91 | CC(C)n1c2c(c3cc(NC(=O)N4CCCCC4CO)ccc31)CCCC2 (stereo not drawn) [Compound 7-9] |  |
|  | 95 | CC(C)n1c2c(c3cc(NC(=O)N4CCCCC4CCO)ccc31)CCCC2 (stereo not drawn) [Compound 7-11] |  |

| Structure (SMILES) | inhibition at 10 µM [%] | % Inhibition ratio (10 μM) [1] [%] | further results |
| --- | --- | --- | --- |
| CCCCn1c2ccccc2c2cc(C(=O)NCCCCCNS(=O)(=O)c3cccc4ccccc34)ccc21 [Compound 1-48] | 96 |  |  |
| CCCCN(C)C(=O)Nc1ccc2c(c1)c1c(n2C(C)C)CCCC1 [Compound 5-3] |  | 98 |  |
| CC(C)n1c2c(c3cc(NC(=O)N(C)CCCCO)ccc31)CCCC2 [Compound 5-6] |  | 89 |  |
| CC(C)n1c2c(c3cc(NC(=O)N(C)CCC#N)ccc31)CCCC2 [Compound 5-9] |  | 98 |  |
| CC(C)n1c2c(c3cc(NC(=O)N(C)CC4CCCO4)ccc31)CCCC2 (stereo not drawn) [Compound 5-13] |  | 98 |  |
| CC(C)n1c2c(c3cc(NC(=O)N(C)CCN4CCCCC4)ccc31)CCCC2 [Compound 5-14] |  | 95 |  |
| CC(C)n1c2c(c3cc(NC(=O)N(C)CCN4CCOCC4)ccc31)CCCC2 [Compound 5-16] |  | 86 |  |
| CC(C)n1c2c(c3cc(NC(=O)N(C)CCc4ccccn4)ccc31)CCCC2 [Compound 5-18] |  | 100 |  |
| CC(C)n1c2c(c3cc(NC(=O)N(C)CCc4ccncc4)ccc31)CCCC2 [Compound 5-20] |  | 103 |  |
| COCCN(CCOC)C(=O)Nc1ccc2c(c1)c1c(n2C(C)C)CCCC1 [Compound 6-3] |  | 102 |  |
| CC(C)n1c2c(c3cc(NC(=O)N4CCCC(CO)C4)ccc31)CCCC2 (stereo not drawn) [Compound 7-10] |  | 97 |  |

From patent US6713473B1, “Tricyclic compounds” (Meiji Seika Kaisha, Ltd., priority 1999, dated 2004)
